Laboratory results taken from patent publication US11066447B2, “Aureobasidium derivatives and methods of synthesis” (AureoGen Biosciences, Inc., priority 2016, dated 2021).
Values after ≈ are worked out from the molar mass of the structure shown. Read-outs that look alike come from different tables or passages of the source. Numbered stars: 1 amine (or outer) side, 2 acyl side, 3 side chain; on linkers, the order of the positions; unused ones are H or OH. Square brackets hold non-standard residues; d marks the D form. Peptide text beside a SMILES is read from it. ξ: configuration not given here. X21 = CC1CCN(c2cc(-c3cccc(C[C@@H](C(=O)[*:2])N(C)[*:1])c3)ccn2)CC1; X26 = CC1CCN(c2cnc(-c3cccc(C[C@@H](C(=O)[*:2])N(C)[*:1])c3)cn2)CC1; X15 = CN([C@@H](Cc1cccc(-c2ccc(N3CCOCC3)nc2)c1)C(=O)[*:2])[*:1]; X20 = CN([C@@H](Cc1cccc(-c2cnn(C3CCCC3)c2)c1)C(=O)[*:2])[*:1]; X14 = CN([C@@H](Cc1cccc(-c2ccc3ncccc3c2)c1)C(=O)[*:2])[*:1]; X22 = CN([C@@H](Cc1cccc(-c2cncc3ccccc23)c1)C(=O)[*:2])[*:1]; X25 = CN([C@@H](Cc1cccc(-c2ccc3cccnc3c2)c1)C(=O)[*:2])[*:1]; Hmp(2R,3S) = CC[C@H](C)[C@@H](O)C(=O)O; NMeVal(β-OH) = CN[C@H](C(=O)O)C(C)(C)O; X6 = CCC(C)[C@@H](O[*:1])C(=O)[*:2]; Ile(3ξ) = CCC(C)[C@H](N)C(=O)O; NMeV = CN[C@H](C(=O)O)C(C)C

Legend:
[1] = test system: C. neoformans MMX 0634 ATCC 90112; assay: MIC assay (CLSI microdilution); type: cell-based; conditions: Cryptococcus neoformans, ATCC90112, RPMI plus 0.002% Tween-80; read-out: MIC
[2] = test system: C. albicans MMX 2000 ATCC 10231; assay: MIC assay (CLSI microdilution); type: cell-based; conditions: Candida albicans, ATCC10231, RPMI plus 0.002% Tween-80; read-out: MIC
[3] = test system: C. parapsilosis MMX 2323 ATCC 22019; assay: MIC assay (CLSI microdilution); type: cell-based, Candida parapsilosis; conditions: read-out: MIC
Method in brief: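 Broth microdilution MIC testing of Candida parapsilosis ATCC 22019 followed CLSI methods in RPMI-1640, with or without 0.002% Tween-80. Yeast grown 48 hours at 35° C on Sabouraud dextrose agar was suspended to a 0.5 McFarland standard and diluted 1:100 to roughly 0.5-2.5×10^3 CFU/mL. The MIC was the lowest concentration preventing visible growth.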

[4] = test system: A. fumigatus MMX 5280 ATCC MYA-3626; assay: MIC/MEC assay (CLSI microdilution); type: cell-based, Aspergillus fumigatus; conditions: for minimal effective concentration / MIC: Aspergillus fumigatus, 48 h
Method in brief: (§1)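 CLSI broth microdilution in RPMI-1640 with 0.002% Tween-80; MMX 5280 was also tested without Tween-80. AbA compounds were two-fold serially diluted in 95% ethanol. Aspergillus spore inoculum was approx. 0.2-2.5×10^4 CFU/mL final.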

[5] = test system: A. fumigatus MMX 6782 ATCC 13073; assay: MIC/MEC assay (CLSI microdilution); type: cell-based; conditions: Aspergillus fumigatus, ATCC13073, 48 h; for minimal effective concentration: RPMI plus 0.002% Tween-80, read-out: MEC; for MIC: RPMI plus 0.002% Tween-80, read-out: MIC
Method in brief: as §1

[6] = test system: A. fumigatus MMX 6781 ATCC MYA-4609; assay: MIC/MEC assay (CLSI microdilution); type: cell-based
Method in brief: as §1

[7] = test system: A. fumigatus MMX 5944; assay: MIC/MEC assay (CLSI microdilution); type: cell-based; conditions: Aspergillus fumigatus, MMX5944, 48 h; for minimal effective concentration: RPMI plus 0.002% Tween-80; for MIC: RPMI plus 0.002% Tween-80, read-out: MIC
Method in brief: as §1

[8] = test system: A. flavus MMX 5948; assay: MIC/MEC assay (CLSI microdilution); type: cell-based; conditions: Aspergillus flavus, MMX5948, 48 h; for minimal effective concentration: RPMI plus 0.002% Tween-80; for MIC: RPMI plus 0.002% Tween-80, read-out: MIC
Method in brief: as §1

[9] = test system: A. niger MMX 0624 ATCC 16888; assay: MIC/MEC assay (CLSI microdilution); type: cell-based; conditions: Aspergillus niger, ATCC16888, 48 h; for minimal effective concentration: RPMI plus 0.002% Tween-80, read-out: MEC; for MIC: RPMI plus 0.002% Tween-80, read-out: MIC
Method in brief: as §1

[10] = test system: A. fumigatus from Aureogen; assay: MIC/MEC assay (CLSI microdilution); type: cell-based; conditions: Aspergillus fumigatus, 48 h; for minimal effective concentration: RPMI plus 0.002% Tween-80; for MIC: RPMI plus 0.002% Tween-80, read-out: MIC
Method in brief: as §1

[11] = ATCC22019, RPMI plus 0.002% Tween-80
[12] = RPMI plus 0.002% Tween-80, read-out: MEC
[13] = RPMI plus 0.002% Tween-80, read-out: MIC
[14] = Without Tween-80, read-out: MIC
[15] = Aspergillus fumigatus, 48 h, RPMI plus 0.002% Tween-80, read-out: MIC
[16] = Aspergillus fumigatus, RPMI plus 0.002% Tween-80, 48 hr
[17] = Without Tween-80, read-out: MEC
[18] = RPMI plus 0.002% Tween-80, 48 hr

MIC [1] | MIC [2] | MIC [3, 11] | MIC ([3]; ATCC22019, Without Tween-80) | MIC [4, 13] | MIC [4, 14] | MIC [5] | MIC [6, 15] | MIC [7] | MIC [8] | MIC [9] | MIC [10] | Compound | minimal effective concentration [4, 12] | minimal effective concentration [5] | minimal effective concentration [6, 16] | minimal effective concentration [7] | minimal effective concentration [8] | minimal effective concentration [9] | minimal effective concentration [10] | minimal effective concentration [4, 17] | also measured
0.12 µg/mL | 0.03 µg/mL | 0.12 µg/mL | 1 µg/mL (≈ 0.814 µM) | 1 µg/mL | 2 µg/mL (≈ 1.63 µM) | 1 µg/mL | 1 µg/mL | 0.5 µg/mL | 1 µg/mL | 0.06 µg/mL | 1 µg/mL | CC[C@H](C)[C@@H]1NC(=O)[C@@H]2CCCN2C(=O)[C@H](Cc2cccc(-c3ccc4cccnc4c3)c2)N(C)C(=O)[C@H](Cc2ccccc2)NC(=O)[C@H](C(C)C)N(C)C(=O)[C@@H]([C@@H](C)CC)OC(=O)[C@H](C(C)(C)O)N(C)C(=O)[C@H](CC(C)C)NC(=O)[C@H](C(C)C)N(C)C1=O [Compound 10] (cyclo(F[X25]PI[NMeV]L[NMeVal(β-OH)][Hmp(2R,3S)][NMeV])) | 0.25 µg/mL | 0.25 µg/mL | 0.25 µg/mL | 0.12 µg/mL | 0.5 µg/mL | 0.06 µg/mL | 0.25 µg/mL |  | MEC ([4]; Without Tween-80, 48 hr): 1 µg/mL
0.5 µg/mL | 0.03 µg/mL | 0.12 µg/mL | 1 µg/mL (≈ 0.809 µM) | > 64 µg/mL | > 64 µg/mL | > 64 µg/mL | > 64 µg/mL | > 64 µg/mL | > 64 µg/mL | > 64 µg/mL | > 64 µg/mL | CC[C@H](C)[C@@H]1NC(=O)[C@@H]2CCCN2C(=O)[C@H](Cc2cccc(-c3cnn(C4CCCC4)c3)c2)N(C)C(=O)[C@H](Cc2ccccc2)NC(=O)[C@H](C(C)C)N(C)C(=O)[C@@H]([C@@H](C)CC)OC(=O)[C@H](C(C)(C)O)N(C)C(=O)[C@H](CC(C)C)NC(=O)[C@H](C(C)C)N(C)C1=O [Compound 12] (cyclo(F[X20]PI[NMeV]L[NMeVal(β-OH)][Hmp(2R,3S)][NMeV])) | > 64 µg/mL | > 64 µg/mL | > 64 µg/mL | > 64 µg/mL | > 64 µg/mL | > 64 µg/mL | > 64 µg/mL | > 64 µg/mL | 
0.5 µg/mL | 0.03 µg/mL | 0.12 µg/mL | 1 µg/mL (≈ 0.791 µM) | > 64 µg/mL | > 64 µg/mL | > 64 µg/mL | > 64 µg/mL | > 64 µg/mL | 0.5 µg/mL | 0.25 µg/mL | > 64 µg/mL | CC[C@H](C)[C@@H]1NC(=O)[C@@H]2CCCN2C(=O)[C@H](Cc2cccc(-c3ccc(N4CCOCC4)nc3)c2)N(C)C(=O)[C@H](Cc2ccccc2)NC(=O)[C@H](C(C)C)N(C)C(=O)[C@@H]([C@@H](C)CC)OC(=O)[C@H](C(C)(C)O)N(C)C(=O)[C@H](CC(C)C)NC(=O)[C@H](C(C)C)N(C)C1=O [Compound 24] (cyclo(F[X15]PI[NMeV]L[NMeVal(β-OH)][Hmp(2R,3S)][NMeV])) | > 64 µg/mL | > 64 µg/mL | > 64 µg/mL | > 64 µg/mL | 0.25 µg/mL | 0.25 µg/mL | > 64 µg/mL | > 64 µg/mL | 
0.25 µg/mL | 0.03 µg/mL | 0.12 µg/mL | 1 µg/mL (≈ 0.814 µM) | > 64 µg/mL | > 64 µg/mL | > 64 µg/mL | > 64 µg/mL | > 64 µg/mL | 0.5 µg/mL | 0.25 µg/mL | > 64 µg/mL | CCC(C)[C@@H]1NC(=O)[C@@H]2CCCN2C(=O)[C@H](Cc2cccc(-c3ccc4ncccc4c3)c2)N(C)C(=O)[C@H](Cc2ccccc2)NC(=O)[C@H](C(C)C)N(C)C(=O)[C@@H](C(C)CC)OC(=O)[C@H](C(C)(C)O)N(C)C(=O)[C@H](CC(C)C)NC(=O)[C@H](C(C)C)N(C)C1=O (stereo partly drawn) [Compound 18] (cyclo(F[X14]P[Ile(3ξ)][NMeV]L[NMeVal(β-OH)][X6][NMeV])) | > 64 µg/mL |  | > 64 µg/mL | > 64 µg/mL | 0.25 µg/mL | 0.06 µg/mL | > 64 µg/mL | > 64 µg/mL | 
0.06 µg/mL | 0.008 µg/mL | 0.06 µg/mL | 1 µg/mL (≈ 0.814 µM) | > 64 µg/mL | > 64 µg/mL | > 64 µg/mL | > 64 µg/mL | > 64 µg/mL | > 64 µg/mL | 0.12 µg/mL | > 64 µg/mL | CC[C@H](C)[C@@H]1NC(=O)[C@@H]2CCCN2C(=O)[C@H](Cc2cccc(-c3cncc4ccccc34)c2)N(C)C(=O)[C@H](Cc2ccccc2)NC(=O)[C@H](C(C)C)N(C)C(=O)[C@@H]([C@@H](C)CC)OC(=O)[C@H](C(C)(C)O)N(C)C(=O)[C@H](CC(C)C)NC(=O)[C@H](C(C)C)N(C)C1=O [Compound 29] (cyclo(F[X22]PI[NMeV]L[NMeVal(β-OH)][Hmp(2R,3S)][NMeV])) | > 64 µg/mL |  | > 64 µg/mL | > 64 µg/mL | > 64 µg/mL | 0.12 µg/mL | > 64 µg/mL | > 64 µg/mL | 
0.25 µg/mL | 0.06 µg/mL | 0.25 µg/mL | 1 µg/mL (≈ 0.783 µM) | > 64 µg/mL | > 64 µg/mL | > 64 µg/mL |  | > 64 µg/mL | > 64 µg/mL | 0.5 µg/mL | > 64 µg/mL | CC[C@H](C)[C@@H]1NC(=O)[C@@H]2CCCN2C(=O)[C@H](Cc2cccc(-c3cnc(N4CCC(C)CC4)cn3)c2)N(C)C(=O)[C@H](Cc2ccccc2)NC(=O)[C@H](C(C)C)N(C)C(=O)[C@@H]([C@@H](C)CC)OC(=O)[C@H](C(C)(C)O)N(C)C(=O)[C@H](CC(C)C)NC(=O)[C@H](C(C)C)N(C)C1=O [Compound 11] (cyclo(F[X26]PI[NMeV]L[NMeVal(β-OH)][Hmp(2R,3S)][NMeV])) | 8 µg/mL | 0.5 µg/mL |  | 2 µg/mL | 1 µg/mL | 0.5 µg/mL | 2 µg/mL | 4 µg/mL | MEC [6, 18]: 8 µg/mL; MIC [6, 18]: 64 µg/mL
0.25 µg/mL | 0.06 µg/mL | 0.12 µg/mL | 1 µg/mL (≈ 0.784 µM) | > 64 µg/mL | > 64 µg/mL | > 64 µg/mL | > 64 µg/mL | > 64 µg/mL | > 64 µg/mL | 0.25 µg/mL | > 64 µg/mL | CC[C@H](C)[C@@H]1NC(=O)[C@@H]2CCCN2C(=O)[C@H](Cc2cccc(-c3ccnc(N4CCC(C)CC4)c3)c2)N(C)C(=O)[C@H](Cc2ccccc2)NC(=O)[C@H](C(C)C)N(C)C(=O)[C@@H]([C@@H](C)CC)OC(=O)[C@H](C(C)(C)O)N(C)C(=O)[C@H](CC(C)C)NC(=O)[C@H](C(C)C)N(C)C1=O [Compound 23] (cyclo(F[X21]PI[NMeV]L[NMeVal(β-OH)][Hmp(2R,3S)][NMeV])) | > 64 µg/mL | > 64 µg/mL | > 64 µg/mL | > 64 µg/mL | > 64 µg/mL | 0.12 µg/mL | > 64 µg/mL | > 64 µg/mL | 
